In US8129361B2, “Amine compound and pharmaceutical use thereof” (Mitsubishi Tanabe Pharma Corporation, priority 2007, dated 2012):

Columns and labels:
Type in all cases: in vivo
[1] = test system: peripheral blood lymphocyte number; assay: Peripheral blood lymphocyte number decreasing action in mouse; conditions: ip, male BALB/cAnNCrj mice, intraperitoneal, 24 hr after administration, read-out: ED50 (dose necessary for reducing the lymphocyte count of the vehicle group (100%) by 50%)
[2] = test system: peripheral blood lymphocyte number; assay: Peripheral blood lymphocyte number decreasing action in rat; conditions: male F344 rats, oral, 24 hr after administration, read-out: ED50 (dose necessary for reducing the lymphocyte count of the vehicle group (100%) by 50%)
[3] = test system: heart rate in rat; assay: Action on heart rate in rat (telemetry, oral administration); conditions: male Crl:CD(SD) rats, up to the dose of 30 mg/kg body weight, measured to 24 hr after administration
Protocol: Action on Heart Rate in Rat
Male Crl:CD(SD) rats were anesthetized by intraperitoneal administration of Nembutal (manufactured by Dainippon Sumitomo Pharma Co., Ltd.), and a pressure sensor connected to a telemetry transmitter (TL11M2-C50-PTX, manufactured by Data Sciences International) was inserted into the abdominal aorta and a transmitter was subcutaneously placed in the abdomen. The blood pressure and heart rate data were recorded by an analysis software (Dataquest A.R.T., manufactured by Data Sciences International) via a receiver (RPC-1, manufactured by Data Sciences International). After confirmation of recovery of circadian rhythm of the heart rate, the rats were subjected to the experiment. The compound of the present invention was suspended in 0.5% hydroxypropylmethylcellulose (manufactured by Shin-Etsu Chemical Co., Ltd.) and orally administered. The heart rate was measured from 72 hr before the administration to 24 hr after the administration.

[4] = test system: heart rate in rat under anesthesia; assay: Action on heart rate in rat under anesthesia (intravenous administration); conditions: anesthetized male Sprague-Dawley (IGS) rats, intravenous over 30 sec, up to the dose of 0.03 mg/kg body weight, 1-15 minutes after administration
Protocol: Action on Heart Rate in Rat Under Anesthesia
Male Sprague-Dawley (IGS) rats were anesthetized by intraperitoneal administration of Nembutal (manufactured by Dainippon Sumitomo Pharma Co., Ltd.), and fixed at the dorsal position. Electrodes were mounted on four limbs, and the electrocardiogram was measured according to Standard Limb Lead II using an electrocardiogram amplifier (AC-601G, manufactured by NIHON KOHDEN CORPORATION). With the electrocardiographic wave as a trigger, the heart rate was measured with an instantaneous heart rate unit (AT-601G, manufactured by NIHON KOHDEN CORPORATION). The test compound was dissolved in 20% cyclodextrin (manufactured by Nihon Shokuhin Kako Co., Ltd.) and intravenously administered at a dose of 0.001-10 mg/kg body weight over 30 sec. The heart rate was measured before administration, and 1, 2, 3, 4, 5, 10 and 15 minutes after the administration.

Row | Compound | ED50 [1] | ED50 [2] | Effect on heart rate [3] | Effect on heart rate as compared to the value before administration [4]
1 | Cl.NC(CO)(CO)CCc1ccc(OCCCc2ccc(C(F)(F)F)cc2)c(C(F)(F)F)c1 [Compound 11-4, 2-amino-2-(2-{3-trifluoromethyl-4-[3-(4-trifluoromethylphenyl)propoxy]phenyl}ethyl)propane-1,3-diol hydrochloride] | 0.06 mg/kg | 0.09 mg/kg | did not reduce the heart rate | –
2 | Cl.NC(CO)(CO)CCc1ccc(OCCCc2cccc(C(F)(F)F)c2)c(C(F)(F)F)c1 [Compound 12-4, 2-amino-2-(2-{3-trifluoromethyl-4-[3-(3-trifluoromethylphenyl)propoxy]phenyl}ethyl)propane-1,3-diol hydrochloride] | 0.04 mg/kg | 0.11 mg/kg | did not reduce the heart rate | –
3 | Cc1cccc(CCCOc2ccc(CCC(N)(CO)CO)cc2C(F)(F)F)c1.Cl [Compound 15-4, 2-amino-2-(2-{4-[3-(3-methylphenyl)propoxy]-3-trifluoromethylphenyl}ethyl)propane-1,3-diol hydrochloride] | 0.03 mg/kg | 0.05 mg/kg | did not reduce the heart rate | –
4 | C[C@](N)(CO)CCc1ccc(OCCCc2ccc(C(F)(F)F)cc2)c(C(F)(F)F)c1.Cl [Compound 29-1, (R)-2-amino-2-methyl-4-{3-trifluoromethyl-4-[3-(4-trifluoromethylphenyl)propoxy]phenyl}butanol hydrochloride] | – | 0.03 mg/kg | – | –
5 | CC[C@](N)(CO)CCc1ccc(OCCCc2ccc(C(F)(F)F)cc2)c(C(F)(F)F)c1.Cl [Compound 32-1, (R)-2-amino-2-ethyl-4-{3-trifluoromethyl-4-[3-(4-trifluoromethylphenyl)propoxy]phenyl}butanol hydrochloride] | – | 0.02 mg/kg | – | –
6 | Cl.NC(CO)(CO)CCc1ccc(OCCCc2ccc(Cl)c(Cl)c2)c(C(F)(F)F)c1 [Compound 38-5, 2-amino-2-(2-{4-[3-(3,4-dichlorophenyl)propoxy]-3-trifluoromethylphenyl}ethyl)propane-1,3-diol hydrochloride] | 0.07 mg/kg | 0.07 mg/kg | did not reduce the heart rate | –
7 | Cl.NC(CO)(CO)CCc1ccc(OCCCc2ccc(OC(F)(F)F)cc2)c(C(F)(F)F)c1 [Compound 52-5, 2-amino-2-(2-{4-[3-(4-trifluoromethoxyphenyl)propoxy]-3-trifluoromethylphenyl}ethyl)propane-1,3-diol hydrochloride] | 0.08 mg/kg | 0.05 mg/kg | did not reduce the heart rate | –
8 | Cl.NC(CO)(CO)CCc1ccc(OCCCc2cccc(OC(F)(F)F)c2)c(C(F)(F)F)c1 [Compound 58-5, 2-amino-2-(2-{4-[3-(3-trifluoromethoxyphenyl)propoxy]-3-trifluoromethylphenyl}ethyl)propane-1,3-diol hydrochloride] | 0.06 mg/kg | 0.07 mg/kg | – | –
9 | Cl.NC(CO)(CO)CCc1ccc(OCCCc2ccc(C(F)(F)F)c(F)c2)c(C(F)(F)F)c1 [Compound 68-4, 2-amino-2-(2-{4-[3-(3-fluoro-4-trifluoromethylphenyl)propoxy]-3-trifluoromethylphenyl}ethyl)propane-1,3-diol hydrochloride] | 0.04 mg/kg | 0.09 mg/kg | – | –
10 | Cl.NC(CO)(CO)CCc1ccc(OC/C=C/c2cccc(Cl)c2)c(C(F)(F)F)c1 [Compound 89-2, 2-amino-2-(2-{4-[3-(3-chlorophenyl)allyloxy]-3-trifluoromethylphenyl}ethyl)propane-1,3-diol hydrochloride] | 0.04 mg/kg | 0.06 mg/kg | – | –
11 | Cl.NC(/C=C/c1ccc(OCCCc2ccccc2)c(C(F)(F)F)c1)(CO)CO [Compound 100-2, (E)-2-amino-2-{2-[4-(3-phenylpropoxy)-3-trifluoromethylphenyl]vinyl}propane-1,3-diol hydrochloride] | 0.07 mg/kg | 0.07 mg/kg | – | –
12 | Cl.NC(/C=C/c1ccc(OCCCc2ccccc2F)c(C(F)(F)F)c1)(CO)CO [Compound 101-2, (E)-2-amino-2-(2-{4-[3-(2-fluorophenyl)propoxy]-3-trifluoromethylphenyl}vinyl)propane-1,3-diol hydrochloride] | 0.1 mg/kg | – | – | –
13 | C[C@@](N)(CCc1ccc(OCCCc2ccc(C(F)(F)F)cc2)c(C(F)(F)F)c1)COP(=O)(O)O [Compound 132-2, (R)-phosphoric acid mono(2-amino-2-methyl-4-{3-trifluoromethyl-4-[3-(4-trifluoromethylphenyl)propoxy]phenyl}butyl)ester] | – | – | – | did not reduce the heart rate of the rat by 20% or more
14 | NC(CO)(CCc1ccc(OCCCc2ccc(OC(F)(F)F)cc2)c(C(F)(F)F)c1)COP(=O)(O)O (stereo not drawn) [Compound 153-2, 2-amino-2-(phosphoryloxymethyl)-4-{4-[3-(4-trifluoromethoxyphenyl)propoxy]-3-trifluoromethylphenyl}butanol] | – | – | – | did not reduce the heart rate of the rat by 20% or more
15 | NC(CO)(CCc1ccc(OCCCc2cccc(OC(F)(F)F)c2)c(C(F)(F)F)c1)COP(=O)(O)O (stereo not drawn) [Compound 158-2, 2-amino-2-(phosphoryloxymethyl)-4-{4-[3-(3-trifluoromethoxyphenyl)propoxy]-3-trifluoromethylphenyl}butanol] | – | – | – | did not reduce the heart rate of the rat by 20% or more
16 | NC(CO)(CCc1ccc(OCCCc2ccc(C(F)(F)F)c(F)c2)c(C(F)(F)F)c1)COP(=O)(O)O (stereo not drawn) [Compound 168-2, 2-amino-4-{4-[3-(3-fluoro-4-trifluoromethylphenyl)propoxy]-3-trifluoromethylphenyl}-2-(phosphoryloxymethyl)butanol] | – | – | – | did not reduce the heart rate of the rat by 20% or more
17 | CC[C@](N)(CO)CCc1ccc(OCCCc2ccc(Cl)c(Cl)c2)c(C(F)(F)F)c1.Cl [Compound 206-3, (R)-2-amino-4-{4-[3-(3,4-dichlorophenyl)propoxy]-3-trifluoromethylphenyl}-2-ethylbutanol hydrochloride] | 0.02 mg/kg | 0.05 mg/kg | – | –
18 | CC(N)(CCc1ccc(OCCCc2ccc(Cl)c(Cl)c2)c(C(F)(F)F)c1)COP(=O)(O)O (stereo not drawn) [Compound 209-2, phosphoric acid mono(2-amino-4-{4-[3-(3,4-dichlorophenyl)propoxy]-3-trifluoromethylphenyl}-2-methylbutyl)ester] | – | – | – | did not reduce the heart rate of the rat by 20% or more
19 | CC[C@](N)(CO)CCc1ccc(OCCCc2ccc(OC(F)(F)F)cc2)c(C(F)(F)F)c1.Cl [Compound 218-2, (R)-2-amino-2-ethyl-4-{4-[3-(4-trifluoromethoxyphenyl)propoxy]-3-trifluoromethylphenyl}butanol hydrochloride] | – | 0.03 mg/kg | – | –
20 | CC[C@](N)(CO)CCc1ccc(OCCCc2cccc(OC(F)(F)F)c2)c(C(F)(F)F)c1.Cl [Compound 220-2, (R)-2-amino-2-ethyl-4-{4-[3-(3-trifluoromethoxyphenyl)propoxy]-3-trifluoromethylphenyl}butanol hydrochloride] | – | 0.03 mg/kg | – | –
21 | CCC(N)(CCc1ccc(OCCCc2ccc(OC(F)(F)F)cc2)c(C(F)(F)F)c1)COP(=O)(O)O (stereo not drawn) [Compound 221-2, phosphoric acid mono(2-amino-2-ethyl-4-{4-[3-(4-trifluoromethoxyphenyl)propoxy]-3-trifluoromethylphenyl}butyl)ester] | – | – | – | did not reduce the heart rate of the rat by 20% or more
22 | CCC(N)(CCc1ccc(OCCCc2cccc(OC(F)(F)F)c2)c(C(F)(F)F)c1)COP(=O)(O)O (stereo not drawn) [Compound 223-2, phosphoric acid mono(2-amino-2-ethyl-4-{4-[3-(3-trifluoromethoxyphenyl)propoxy]-3-trifluoromethylphenyl}butyl)ester] | – | – | – | did not reduce the heart rate of the rat by 20% or more
23 | NC(/C=C/c1ccc(OCCCc2ccccc2)c(C(F)(F)F)c1)(CO)COP(=O)(O)O (stereo not drawn) [compound 192-2, (E)-2-amino-4-[4-(3-phenylpropoxy)-3-trifluoromethylphenyl]-2-(phosphoryloxymethyl)-3-butenol] | – | – | – | did not reduce the heart rate of the rat by 20% or more
24 | NC(/C=C/c1ccc(OCCCc2ccccc2F)c(C(F)(F)F)c1)(CO)COP(=O)(O)O (stereo not drawn) [compound 193-2, (E)-2-amino-4-{4-[3-(2-fluorophenyl)propoxy]-3-trifluoromethylphenyl}-2-(phosphoryloxymethyl)-3-butenol] | – | – | – | did not reduce the heart rate of the rat by 20% or more
